Source: US8853251B2, “Ester pro-drugs of [3-(1-(1H-imidazol-4-YL)ethyl)-2-methylphenyl] methanol for treating retinal diseases” (Allergan, Inc., priority 2010, dated 2014)

Key:
[1] = tested on: blue light model of retinal degeneration in rats; assay: The Blue Light Model of retinal degeneration; format: in vivo, rat; details: male Sprague Dawley rats, subcutaneous infusion pumps 1 mg/kg/day starting two days before blue light (4 hours, 6100-6500 lux), OCT at 7 days post exposure
Experimental: Pro-drug iso-Butyric acid 3-[(S)-1-(1H-imidazol-4-yl)-ethyl]-2-methyl-benzyl ester is evaluated in the blue light model of retinal degeneration in rats. The drugs is administered continuously with subcutaneous infusion pumps at a dose of 1 mg/kg/day starting two days before blue light exposure. Twenty 4-month old male Sprague Dawley rats (body weight 470-550 g) were used in this study. The animals were exposed to room light on a 12 hour light/12 hour dark cycle before the experiment. All animals were dark adapted overnight (16-20 hours) before blue light. Under the intensity of 6100-6500 lux, rats were exposed to blue light for 4 hours. After the blue light, rats were placed in the dark for another 3 days before returning to normal 12 hour light/12 hour dark. Ocular Coherence Tomography (OCT) measurement was performed at 7 days post blue light exposure.

normal DB rabbits = assay: Visual Enhancement Model (sweep visual evoked potential acuity); format: in vivo, rabbit; details: pigmented (Dutch-Belted) rabbits, intravenous route, 10-30 minutes post-dose, conscious animals, bilateral recordings
Experimental: Spatial sweep visual evoked potential (sVEP) acuity is assessed with PowerDiva software version 1.8. Recordings were made bilaterally in conscious animals.

| SMILES | retinal thickness measured by OCT after blue light exposure [1] | Spatial sweep visual evoked potential (sVEP) acuity (normal DB rabbits) |
| --- | --- | --- |
| Brc1c(NC2=NCCN2)ccc2nccnc12 [Brimonidine, reference compound] | did not prevent the change in retinal thickness | – |
| Cc1c(COC(=O)C(C)C)cccc1[C@H](C)c1c[nH]cn1 [Compound 1, iso-Butyric acid 3-[(S)-1-(1H-imidazol-4-yl)-ethyl]-2-methyl-benzyl ester] | significantly reduced the damage caused by blue light | enhances visual acuity |
